Values after ≈ are worked out from the molar mass of the structure shown. Active and inactive are the calls of the source. The calls are words filed in the database; no cut-off is given here.
How the values were obtained:
CYP3A4 = CYP3A4 (Homo sapiens, UniProt P08684); assay: Inhibition of Homo sapiens (human) recombinant CYP3A4 at 10 uM by fluorogenic assay; assay type: ADME
[1] = biological target: Sodium channel protein type 9 subunit alpha (Homo sapiens, UniProt Q15858); assay: Inhibition of Homo sapiens (human) NaV1.7 expressed in HEK293 cells assessed as decrease in [14C]guanidinium influx after 2 hr by liquid scintillation counting analysis; assay type: cell-based
Sequence of Sodium channel protein type 9 subunit alpha (Q15858 whole entry): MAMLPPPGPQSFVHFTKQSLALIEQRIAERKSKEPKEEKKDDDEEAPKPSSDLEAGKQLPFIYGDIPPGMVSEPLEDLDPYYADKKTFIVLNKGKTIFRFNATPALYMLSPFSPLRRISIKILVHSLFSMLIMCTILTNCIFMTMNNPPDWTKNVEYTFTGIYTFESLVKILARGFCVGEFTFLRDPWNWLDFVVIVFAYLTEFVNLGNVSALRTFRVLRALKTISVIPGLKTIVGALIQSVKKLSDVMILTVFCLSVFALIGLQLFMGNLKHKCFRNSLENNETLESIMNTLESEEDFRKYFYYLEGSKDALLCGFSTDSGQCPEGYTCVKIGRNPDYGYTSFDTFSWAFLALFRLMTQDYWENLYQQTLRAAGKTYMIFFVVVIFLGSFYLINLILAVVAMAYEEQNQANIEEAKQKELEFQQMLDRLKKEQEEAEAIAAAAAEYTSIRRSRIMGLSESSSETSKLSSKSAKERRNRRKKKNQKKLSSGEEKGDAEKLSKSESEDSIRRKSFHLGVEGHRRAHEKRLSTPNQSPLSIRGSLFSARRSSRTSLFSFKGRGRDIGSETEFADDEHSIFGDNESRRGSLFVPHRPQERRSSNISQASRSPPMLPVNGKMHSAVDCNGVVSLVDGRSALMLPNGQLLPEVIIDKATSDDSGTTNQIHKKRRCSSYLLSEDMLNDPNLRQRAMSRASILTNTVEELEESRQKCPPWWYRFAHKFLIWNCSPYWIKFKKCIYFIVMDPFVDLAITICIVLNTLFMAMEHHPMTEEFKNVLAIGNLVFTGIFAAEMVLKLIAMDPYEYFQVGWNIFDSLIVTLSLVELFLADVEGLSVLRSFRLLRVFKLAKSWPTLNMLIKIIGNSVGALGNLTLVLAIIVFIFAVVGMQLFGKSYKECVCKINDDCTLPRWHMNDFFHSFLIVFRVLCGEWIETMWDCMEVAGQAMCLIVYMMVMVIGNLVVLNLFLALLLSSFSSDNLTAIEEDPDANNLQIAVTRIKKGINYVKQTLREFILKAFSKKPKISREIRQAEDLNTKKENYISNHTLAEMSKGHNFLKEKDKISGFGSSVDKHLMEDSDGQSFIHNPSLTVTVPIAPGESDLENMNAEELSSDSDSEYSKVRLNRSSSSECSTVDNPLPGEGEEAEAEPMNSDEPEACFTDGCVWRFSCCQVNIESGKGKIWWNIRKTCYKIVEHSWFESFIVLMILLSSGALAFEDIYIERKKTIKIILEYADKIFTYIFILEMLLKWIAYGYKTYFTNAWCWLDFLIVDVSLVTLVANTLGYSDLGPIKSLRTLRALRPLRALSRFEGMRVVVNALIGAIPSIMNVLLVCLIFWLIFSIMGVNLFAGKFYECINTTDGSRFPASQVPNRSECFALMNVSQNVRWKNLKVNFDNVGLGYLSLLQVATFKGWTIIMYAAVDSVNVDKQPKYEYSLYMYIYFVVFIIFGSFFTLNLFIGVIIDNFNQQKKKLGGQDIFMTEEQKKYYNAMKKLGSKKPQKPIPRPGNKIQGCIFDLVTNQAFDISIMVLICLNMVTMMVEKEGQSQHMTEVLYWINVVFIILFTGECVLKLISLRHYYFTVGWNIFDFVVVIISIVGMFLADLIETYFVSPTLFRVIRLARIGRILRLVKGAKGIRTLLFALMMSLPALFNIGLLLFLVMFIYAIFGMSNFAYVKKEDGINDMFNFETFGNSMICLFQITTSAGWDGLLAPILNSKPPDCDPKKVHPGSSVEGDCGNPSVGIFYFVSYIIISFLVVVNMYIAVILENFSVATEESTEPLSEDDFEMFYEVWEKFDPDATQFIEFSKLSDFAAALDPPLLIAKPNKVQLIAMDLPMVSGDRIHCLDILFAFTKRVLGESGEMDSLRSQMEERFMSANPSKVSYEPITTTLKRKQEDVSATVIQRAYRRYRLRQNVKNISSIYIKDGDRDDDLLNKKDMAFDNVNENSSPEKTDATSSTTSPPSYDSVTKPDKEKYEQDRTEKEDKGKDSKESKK

[2] = Solubility of the compound in phosphate buffered saline at pH 7.4; assay type: physicochemical
Rattus norvegicus [3] = assay: Analgesic activity in CFA-induced Rattus norvegicus (rat) inflammatory pain model assessed as reduction of mechanical allodynia at 10 mg/kg, ip after 1 hr by von Frey test; assay type: functional, organism-based; design: dose 10 mg/kg
[4] = Metabolic stability in Rattus norvegicus (rat) liver microsomes assessed as compound remaining after 30 min; assay type: ADME; conditions: read-out: Stability
Rattus norvegicus [5] = assay: Analgesic activity in CFA-induced Rattus norvegicus (rat) inflammatory pain model assessed as reduction of mechanical allodynia at 40 mg/kg, po after 1 hr by von Frey test; assay type: functional, organism-based; design: dose 40 mg/kg
[6] = Metabolic stability in Rattus norvegicus (rat) hepatocytes assessed as compound remaining after 2 hr; assay type: ADME, cell-based, Hepatocyte; conditions: read-out: Stability
[7] = Cmax in Sprague-Dawley Rattus norvegicus (rat) at 1 mg/kg, iv; assay type: ADME, organism-based; design: dose 1 mg/kg, route intravenous; conditions: in vivo
[8] = AUClast in Sprague-Dawley Rattus norvegicus (rat) at 1 mg/kg, iv; assay type: ADME, organism-based; design: time 0 - last, dose 1 mg/kg, route intravenous; conditions: plasma
[9] = Metabolic stability in Canis lupus familiaris (dog) hepatocytes assessed as compound remaining after 2 hr; assay type: ADME, cell-based, Hepatocyte; conditions: read-out: Stability
[10] = AUClast in Sprague-Dawley Rattus norvegicus (rat) at 10 mg/kg, po; assay type: ADME, organism-based; design: time 0 - last, dose 10 mg/kg, route oral; conditions: plasma
[11] = Tmax in Sprague-Dawley Rattus norvegicus (rat) at 10 mg/kg, po; assay type: ADME, organism-based; design: dose 10 mg/kg, route oral; conditions: in vivo
[12] = Terminal half life in Sprague-Dawley Rattus norvegicus (rat) at 1 mg/kg, iv; assay type: ADME, organism-based; design: dose 1 mg/kg, route intravenous; conditions: in vivo, read-out: beta t1/2 (converted)
[13] = Plasma protein binding in Rattus norvegicus (rat); assay type: ADME, cell-free; conditions: read-out: PPB (converted)
[14] = Metabolic stability in Homo sapiens (human) hepatocytes assessed as compound remaining after 2 hr; assay type: ADME, cell-based, Hepatocyte; conditions: read-out: Stability
[15] = Cytotoxicity against Homo sapiens (human) HepG2 cells assessed as cell viability after 16 hr; assay type: cell-based; conditions: read-out: Activity
[16] = Apparent permeability across apical to basolateral side in Homo sapiens (human) Caco2 cells; assay type: ADME, cell-based; conditions: Caco-2
[17] = Volume of distribution at steady state in Sprague-Dawley Rattus norvegicus (rat) at 1 mg/kg, iv; assay type: ADME, organism-based; design: dose 1 mg/kg, route intravenous; conditions: in vivo, read-out: Vdss
hERG (KCNH2) = hERG (KCNH2) (Homo sapiens, UniProt Q12809); assay: Inhibition of Homo sapiens (human) ERG expressed in HEK293 cells at 10 uM after 3 hr by rubidium efflux assay; assay type: cell-based; conditions: HEK293 cells expressing human ERG
Sequence of hERG (KCNH2) (Q12809 whole entry): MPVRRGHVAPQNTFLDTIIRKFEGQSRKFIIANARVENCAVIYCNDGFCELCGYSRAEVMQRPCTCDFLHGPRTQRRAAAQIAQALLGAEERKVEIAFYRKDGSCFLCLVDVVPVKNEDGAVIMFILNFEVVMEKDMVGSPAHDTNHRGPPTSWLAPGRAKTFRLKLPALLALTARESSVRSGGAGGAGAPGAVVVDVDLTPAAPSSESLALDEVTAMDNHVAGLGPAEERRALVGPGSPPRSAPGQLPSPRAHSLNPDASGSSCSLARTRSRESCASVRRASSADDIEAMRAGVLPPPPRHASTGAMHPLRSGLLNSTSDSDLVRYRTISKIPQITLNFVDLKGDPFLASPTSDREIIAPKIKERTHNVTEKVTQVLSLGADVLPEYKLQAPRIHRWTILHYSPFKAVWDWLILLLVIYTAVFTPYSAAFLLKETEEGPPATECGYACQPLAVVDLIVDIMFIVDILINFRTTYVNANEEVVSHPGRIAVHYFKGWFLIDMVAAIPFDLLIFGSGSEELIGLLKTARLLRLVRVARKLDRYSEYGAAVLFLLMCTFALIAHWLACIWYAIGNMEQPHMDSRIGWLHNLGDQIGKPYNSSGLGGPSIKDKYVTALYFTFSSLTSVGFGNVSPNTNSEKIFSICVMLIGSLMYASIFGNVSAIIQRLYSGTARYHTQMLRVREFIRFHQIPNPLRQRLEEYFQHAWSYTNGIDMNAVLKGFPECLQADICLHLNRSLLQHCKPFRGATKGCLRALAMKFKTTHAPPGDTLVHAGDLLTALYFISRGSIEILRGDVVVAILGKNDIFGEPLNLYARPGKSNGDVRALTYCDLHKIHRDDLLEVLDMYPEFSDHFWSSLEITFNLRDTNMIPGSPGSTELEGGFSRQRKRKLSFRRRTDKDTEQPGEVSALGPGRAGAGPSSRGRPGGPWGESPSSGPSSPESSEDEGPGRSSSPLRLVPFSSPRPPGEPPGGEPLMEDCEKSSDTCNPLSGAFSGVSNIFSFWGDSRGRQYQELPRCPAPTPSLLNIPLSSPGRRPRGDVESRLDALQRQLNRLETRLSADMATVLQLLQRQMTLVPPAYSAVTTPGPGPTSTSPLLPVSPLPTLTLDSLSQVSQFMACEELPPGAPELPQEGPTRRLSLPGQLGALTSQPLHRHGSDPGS

[18] = Cmax in Sprague-Dawley Rattus norvegicus (rat) at 10 mg/kg, po; assay type: ADME, organism-based; design: dose 10 mg/kg, route oral; conditions: in vivo
[19] = Oral bioavailability in Sprague-Dawley Rattus norvegicus (rat) at 10 mg/kg; assay type: ADME, organism-based; conditions: in vivo
[20] = Clearance in Sprague-Dawley Rattus norvegicus (rat) at 1 mg/kg, iv; assay type: ADME, organism-based; design: dose 1 mg/kg, route intravenous; conditions: in vivo
Rattus norvegicus [21] = assay: Analgesic activity in CFA-induced Rattus norvegicus (rat) inflammatory pain model assessed as reduction of mechanical allodynia at 10 mg/kg, po after 1 hr by von Frey test relative to vehicle-treated control; assay type: functional; design: scale not given: the % may be the effect or the level left
Cytochrome P450 3A4 = Cytochrome P450 3A4 (Homo sapiens, UniProt P08684); assay: Inhibition of Homo sapiens (human) recombinant CYP3A4 by fluorogenic assay; assay type: ADME
Sequence of Cytochrome P450 3A4 (P08684 whole entry): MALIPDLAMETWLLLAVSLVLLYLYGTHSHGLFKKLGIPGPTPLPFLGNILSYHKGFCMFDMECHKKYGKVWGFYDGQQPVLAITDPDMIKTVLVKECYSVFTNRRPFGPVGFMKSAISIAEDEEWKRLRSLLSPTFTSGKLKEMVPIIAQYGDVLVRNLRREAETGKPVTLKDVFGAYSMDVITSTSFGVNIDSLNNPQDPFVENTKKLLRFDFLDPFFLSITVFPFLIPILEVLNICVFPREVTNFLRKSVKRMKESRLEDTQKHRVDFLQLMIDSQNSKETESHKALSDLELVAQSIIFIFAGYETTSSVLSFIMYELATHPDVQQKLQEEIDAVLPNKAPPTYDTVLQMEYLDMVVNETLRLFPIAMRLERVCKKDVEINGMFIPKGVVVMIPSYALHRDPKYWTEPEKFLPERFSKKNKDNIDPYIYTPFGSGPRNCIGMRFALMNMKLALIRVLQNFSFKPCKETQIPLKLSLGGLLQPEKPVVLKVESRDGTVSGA

[22] = Apparent permeability across basolateral to apical side in Homo sapiens (human) Caco2 cells; assay type: ADME, cell-based; conditions: Caco-2

Sequence of CYP3A4 (P08684 whole entry): as above

Structure (SMILES) | inhibition at 10 µM (CYP3A4) | IC50 [1] | solubility [2] | also measured
CCCCCN1C(=O)C2(COc3cc4c(cc32)OCO4)c2ccccc21 (stereo unspecified) | 97% | – | – | –
COc1ccc2c(n1)C1(CO2)C(=O)Nc2ccccc21 (stereo unspecified) | 27% | > 1000 nM | 52 µg/mL (≈ 194 µM) | –
COc1cc2c(cc1F)OCC21C(=O)N(Cc2ccccn2)c2ccccc21 (stereo unspecified) | 16% | 470 nM | 36 µg/mL (≈ 95.6 µM) | –
COCCOc1ccc2c(c1)OCC21C(=O)N(Cc2ccccn2)c2ccccc21 (stereo unspecified) | 22% | 150 nM | 46 µg/mL (≈ 114 µM) | –
COc1ccc2c(c1)OCC21C(=O)N(C[C@H]2CCCO2)c2ccccc21 (stereo partly specified) | 18% | 110 nM | 45 µg/mL (≈ 128 µM) | –
COc1cc2c(cc1OC)C1(CO2)C(=O)N(Cc2ccc(Cl)s2)c2ccccc21 (stereo unspecified) | 75% | 700 nM | 8 µg/mL (≈ 18.7 µM) | –
O=C1N(Cc2ccccn2)c2ccccc2C12COc1cc(F)c(F)cc12 (stereo unspecified) | 30% | 270 nM | 13 µg/mL (≈ 35.7 µM) | –
COc1cc2c(cc1F)C1(CO2)C(=O)N(Cc2ccccn2)c2ccccc21 (stereo unspecified) | 36% | 190 nM | 15 µg/mL (≈ 39.9 µM) | –
CCCCCN1C(=O)C2(COc3cc(F)c(F)cc32)c2ccccc21 (stereo unspecified) | 50% | 240 nM | < 5 µg/mL | –
COc1ccc2c(n1)C1(CO2)C(=O)N(Cc2ccccn2)c2ccccc21 (stereo unspecified) | 42% | 180 nM | < 5 µg/mL | –
COc1cc2c(cn1)OCC21C(=O)Nc2ccccc21 (stereo unspecified) | 13% | 350 nM | 52 µg/mL (≈ 194 µM) | –
Cc1cc2c(cc1C)C1(CO2)C(=O)N(Cc2ccccn2)c2ccccc21 (stereo unspecified) | 43% | 230 nM | 6 µg/mL (≈ 16.8 µM) | –
COc1cc2c(cc1C)C1(CO2)C(=O)N(Cc2ccccn2)c2ccccc21 (stereo unspecified) | 61% | 1150 nM | 7 µg/mL (≈ 18.8 µM) | –
COc1ccc2c(n1)C1(CO2)C(=O)N(Cc2ccc(C(F)(F)F)o2)c2ccccc21 (stereo unspecified) | 26% | 130 nM | < 5 µg/mL | remaining at 2 h [6]: 18%; Cmax [7]: 884 ng/mL; AUC(0-t) [8]: 244 ng·h/mL; remaining at 2 h [9]: 49%; AUC(0-t) [10]: 77.1 ng·h/mL; Tmax [11]: 4 h; half-life [12]: 1.9 h; fraction unbound [13]: 0.05; remaining at 2 h [14]: 29%; viability at 16 h [15]: > 96%; Papp A→B [16]: 9.1 ×10⁻⁶ cm/s; Vd [17]: 4.1 L/kg; inhibition at 3 h, 10 µM (hERG (KCNH2)): 7.5%; Cmax [18]: 12.7 ng/mL; bioavailability [19]: 3.2%; clearance [20]: 66.7 mL/min/kg; Activity (Rattus norvegicus [21]): 59%; IC50 (Cytochrome P450 3A4): > 10000 nM; Papp B→A [22]: 8.8 ×10⁻⁶ cm/s
COc1ccc2c(n1)C1(CO2)C(=O)N(Cc2ncccc2C(F)(F)F)c2ccccc21 (stereo unspecified) | 49% | > 250 nM | < 5 µg/mL | –
CCCCCN1C(=O)C2(COc3cc(OC)ccc32)c2ccccc21 (stereo unspecified) | 64% | 60 nM | < 5 µg/mL | –
N#Cc1cc2c(cc1F)OCC21C(=O)N(Cc2ncccc2C(F)(F)F)c2ccccc21 (stereo unspecified) | 10% | > 1000 nM | < 5 µg/mL | –
COc1cc2c(cc1F)C1(CO2)C(=O)N(Cc2ccc(C(F)(F)F)o2)c2ccccc21 (stereo unspecified) | 69% | 430 nM | < 5 µg/mL | –

Further lines, with some results ahead:

inhibition at 10 µM (CYP3A4) | IC50 [1] | solubility [2] | Structure (SMILES) | also measured
63% | 30 nM | 5 µg/mL (≈ 12 µM) | COc1ccc2c(n1)C1(CO2)C(=O)N(Cc2ccc3c(c2)OCCO3)c2ccccc21 (stereo unspecified) | –
29% | 8 nM | 25 µg/mL (≈ 69.8 µM) | COc1ccc2c(c1)OCC21C(=O)N(Cc2ccccn2)c2ccccc21 (stereo unspecified) | –
73% | 60 nM | < 5 µg/mL | COc1ccc2c(n1)C1(CO2)C(=O)N(Cc2ccc(Cl)s2)c2ccccc21 (stereo unspecified) | –
70% | 60 nM | 5 µg/mL (≈ 12.3 µM) | COc1ccc2c(n1)C1(CO2)C(=O)N(Cc2csc(C(C)C)n2)c2ccccc21 (stereo unspecified) | –
35% | 10 nM | 14 µg/mL (≈ 38.3 µM) | COc1ccc2c(c1)OCC21C(=O)N(CC2CCCCO2)c2ccccc21 (stereo unspecified) | –
22% | 100 nM | 67 µg/mL (≈ 183 µM) | COc1cc2c(cn1)OCC21C(=O)N(CC2CCCCO2)c2ccccc21 (stereo unspecified) | –
22% | 20 nM | 61 µg/mL (≈ 173 µM) | COc1cc2c(cn1)OCC21C(=O)N(C[C@@H]2CCCO2)c2ccccc21 (stereo partly specified) | Activity (Rattus norvegicus [3]): inactive; remaining at 0.5 h [4]: 8%; Activity (Rattus norvegicus [5]): inactive
14% | 50 nM | < 5 µg/mL | COc1cc2c(cn1)OCC21C(=O)N(C[C@H]2CCCO2)c2ccccc21 (stereo partly specified) | –
74% | 4 nM | < 5 µg/mL | COc1cc2c(cn1)OCC21C(=O)N(Cc2ccc(C(F)(F)F)o2)c2ccccc21 (stereo unspecified) | –

Source: ChEMBL document CHEMBL3045789, “Tetracyclic spirooxindole blockers of hNaV1.7: activity in vitro and in CFA-induced inflammatory pain model” (Med Chem Res, 2013)
